According to ChEMBL document CHEMBL1126342, “Synthesis and preliminary biological evaluation of 1-aminomethyl-4-substituted-4-H-pyrrolo[2,1-C][1,4] benzothiazines, a new class of calcium antagonists” (Bioorg Med Chem Lett, 1992):
Values joined by “and” are separate entries in the source; they are usually repeats but may differ in a detail not shown here. Identical values can stand only once.

Assays:
Mus musculus [1] = organism: Mus musculus; assay: Blocking calcium channels in mice using electrophysiological technique at 10 uM; assay type: functional
Mus musculus [2] = organism: Mus musculus; assay: Blocking calcium channels in mice using electrophysiological technique at 100 uM; assay type: functional
[3] = biological target: Voltage-gated L-type calcium channel (Rattus norvegicus, UniProt P22002+Q02485+P27732); assay: Displacement of [3H]nitrendipine from calcium channel receptor; assay type: protein assay

Row | IC50 [3] | Ki [3] | SMILES | Activity (Mus musculus [1]) | Activity (Mus musculus [2])
1 | 53 nM | 19 nM | COc1ccc(C2Sc3ccccc3-n3c(CN(C)CCc4ccc(OC)c(OC)c4)ccc32)cc1.Cl (centres undefined) |  | 
2 | 5870 nM | 2200 nM | COc1ccc(C2Sc3ccccc3-n3c(CNc4ccc(F)cc4)ccc32)cc1 (centres undefined) |  | 
3 | 315 nM | 118 nM | CN(C)Cc1ccc2n1-c1ccccc1SC2c1ccccc1 (centres undefined) | 40% and 65% | 

The remaining lines, values behind:

Row | SMILES | IC50 [3] | Ki [3] | Activity (Mus musculus [1]) | Activity (Mus musculus [2])
4 | COc1ccc(C2Sc3ccccc3-n3c(CN(C)C)ccc32)cc1 (centres undefined) |  |  | 20% | 62%
5 | COc1ccc(C2Sc3ccccc3-n3c(CN(C)C)ccc32)c(OC)c1 (centres undefined) | 150 nM | 56 nM | 24% | 74%
6 | CCC(C)NCc1ccc2n1-c1ccccc1SC2c1ccc(OC)cc1OC (centres undefined) | 14.8 nM | 5.55 nM |  | 
7 | COc1ccc(C2Sc3ccccc3-n3c(CNCCc4ccc(OC)c(OC)c4)ccc32)cc1 (centres undefined) | 534 nM | 200 nM |  | 
8 | COc1ccc([C@@H]2Sc3ccccc3N(CCN(C)C)C(=O)[C@@H]2OC(C)=O)cc1 [DILTIAZEM] |  |  | 24% | 62%
